Measurements published in US9347937B2, “Vaccine comprising Amb a 1 peptides for use in the treatment of ragweed allergy” (Circassia Limited, priority 2008, dated 2016).
No end group written: not given here.

What was measured:
[1] = In vitro solubility testing in an acidic environment; assay type: physicochemical
Description: Accordingly, the inventors have determined that RGW03B is preferred over RGW03.
The modified peptides were tested for solubility and their ability to induce IL-10 from PBMC in the presence of the mixture of peptides identified in FIG. 1 (RGW01+RGW03B+RGW04A+RGW02+RGW05+RGW06A). Controls included the peptide mixture with no RGW07 variant and with whole Amb a 1 allergen.

[2] = test system: blood basophils from ragweed allergic subjects; test: Histamine release assay (Immunotech Histamine Release Immunoassay kit); details: for Subjects with histamine release >15% of positive control: 43 or 20 subjects, highest dose tested 10 μg/ml
Description: Peptides or combinations of peptides that induce histamine release frequently may be considered unsuitable for inclusion in the peptide vaccine.
Histamine release requires the crosslinking of adjacent specific IgE molecules on the surface of the basophil.
Histamine release from fresh peripheral whole blood from ragweed allergic subjects was evaluated. Peripheral blood basophils were used as a surrogate for tissue mast cells which were not practical to assay.
Histamine release in response to whole ragweed allergen extract was measured in each subject to confirm basophil sensitisation. A positive control, representing total histamine release, generated by freeze/thawing the cells twice, was included in each assay. A negative control for spontaneous histamine release was generated by incubating cells in buffer only.
The assay was performed using the Immunotech Histamine Release Immunoassay kit according to the manufacturer's instructions. Following the in vitro challenge of blood basophils with peptides, peptide mixes, whole allergen or buffer in microtitre plate wells, supernatants were removed and the histamine in the samples converted to acyl histamine. Acylated samples were tested by a competitive acyl histamine ELISA.
Peptides were assayed for their ability to induce histamine release over a 5 log 10 range (1 to 10,000 ng/ml). The concentration range assayed was selected based on theoretical in vivo doses of peptide that may be achieved during therapy. […] Whole ragweed allergen extract was used over a slightly higher concentration range (10 to 100,000 ng/ml).
Single measurements were performed for each dilution. After completion of the ELISA, individual histamine levels were determined by interpolation from the standard curve generated in the ELISA assay. Results from samples were adjusted to allow for dilution.

[3] = pH 2.97 0.1 mM HCl, 0.5% (w/v) 1-thioglycerol (ca. 46 mM), 230 mM trehalose
[4] = pH 2.97, Table 6, RGW07 and variants, acidic environment

Sequence | solubility [1, 3] | Maximum histamine release (% of positive control at 10 μg/mL) [2] | Mean histamine release of 43 or 20 subjects as a % of positive control at 10 μg/mL [2] | Subjects with histamine release >15% of positive control [2] | solubility [1, 4] | solubility in an acidic environment ([1]; acidic environment)
RDLLENGAIFLPSG [RGW03B] | 3850 µg/mL | 0% | 1% | 0/43 |  | 
SAGMIPAEPGEA [RGW04A] |  | 0% | 0% | 0/43 |  | 
KEGTLRFAAAQNRP [RGW05] |  | 0% | 0% | 0/43 |  | 
KDLLENGAIFVTSG [RGW03] | < 620 µg/mL |  |  |  |  | 
AINNDKTIDGRGAKVE [RGW06A] |  | 0% | 1% | 0/43 |  | 
KGEAAIKLTSSAGVLSKK [RGW07D] |  | 0% | 3% | 0/20 | 4260 µg/mL | 
GEAAIKLTSSAGVLS [RGW07] |  | 0% | 1% | 0/43 | 700 µg/mL | poor solubility
GSSQIWIDHSSLSKS [RGW02] |  | 0% | 1% | 0/43 |  | 
GMIKSNDGPPI [RGW01] |  | 0% | 1% | 0/43 |  | 
KGEAAIKLTSSAGVLSK [RGW07C] |  |  |  |  | 1550 µg/mL | 
